Source: patent publication EP1219608A1, “PYRIMIDINE DERIVATIVES, PROCESS FOR PREPARING THE DERIVATIVES AND DRUGS CONTAINING THE SAME AS THE ACTIVE INGREDIENT” (ONO PHARMACEUTICAL CO., LTD., priority 1999, dated 2001)

Biological target: T1, human sputum elastase (HSE) (Homo sapiens, UniProt P08246)
T1 construct: human sputum elastase (HSE); from tissue; host or cells: human sputum (from the enzyme's name only)
T1 sequence (P08246 30-247 limits assumed): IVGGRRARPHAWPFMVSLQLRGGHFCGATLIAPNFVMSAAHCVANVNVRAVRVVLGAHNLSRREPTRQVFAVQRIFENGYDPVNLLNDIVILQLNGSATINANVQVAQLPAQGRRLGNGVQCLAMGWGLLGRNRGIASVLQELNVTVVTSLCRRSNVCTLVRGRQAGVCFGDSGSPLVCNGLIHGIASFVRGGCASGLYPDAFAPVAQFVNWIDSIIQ
Experiment: Inhibitory effects on human sputum elastase
Type: biochemical
Conditions: pre-incubated at 37°C for 20 minutes; substrate MeO-Suc-Ala-Ala-Pro-Val-pNA, 37°C for 5 minutes; HEPES buffer (pH 8.0); pNA measured at 405 nm
Description: (1) Inhibitory effects on human sputum elastase
A mixture of 0.5 ml of 0.2 mM HEPES buffer (pH 8.0), 0.2 ml of 2.5 M aqueous solution of sodium chloride, 0.1 ml of 1% polyethyleneglycol 6000, 0.13 ml of distilled water, 0.01 ml of a solution of test compound in dimethylsulfoxide (DMSO) and 0.05 ml of 0.8 U/ml human sputum elastase (HSE) was pre-incubated at 37°C, for 20 minutes. 0.01 ml of 5 mM MeO-Suc-Ala-Ala-Pro-Val-pNA in DMSO was added to the above mixture and the mixture was incubated at 37°C for 5 minutes. The reaction was terminated by 0.1 ml of 50% acetic acid and then p-nitroanilide (pNA) released was measured spectrophotometrically at 405 nm. Percent inhibition of a compound was calculated by the following equation. Inhibition (%) = [1 - {delta OD (test-blank) / delta OD (control-blank)}] × 100 [formula]

CC(C)C(NC(=O)Cn1c(-c2ccccc2)ncc([N+](=O)[O-])c1=O)C(=O)c1nnc(C(C)(C)C)o1 (racemic) [Example 7(1), N-[(1RS)-1-(5-(t-butyl)-1,3,4-oxadiazol-2-ylcarbonyl)-2-methylpropyl]-2-[6-oxo-2-phenyl-5-nitro-1,6-dihydropyrimidin-1-yl]acetamide]
IC50: 88 nM
